Test results published in patent US20210369583A1, “COMPOSITIONS FOR PROVIDING SKIN CARE BENEFITS AND METHODS OF USE” (Danisco US Inc., priority 2018, published 2021).
Several values for one entry are separate records, joined by “and”; a condition that tells them apart may be missing. Equal entries are not always repeated.

How the values were obtained:
Type in all cases: cell-based
[1] = test system: Normal Human Epidermal Keratinocytes (NHEK); assay: Osmoprotective effect on keratinocytes under hyper-osmotic conditions (NaCl 150 mM), flow cytometry
Description: (§1) The type of cells use for this study were Normal Human Epidermal Keratinocytes (NHEK), Bioalternatives reference K341 used at the 3rd passage. The culture conditions were: 37° C., 5% CO2. The culture medium is referred to as “keratinocyte-SFM” supplemented with Epidermal Growth Factor (EGF) 0.25 ng/ml, Pituitary extract (PE) 25 μg/ml, Gentamycin 25 μg/ml. The assay medium was “keratinocyte-SFM” supplemented with gentamycin 25 μg/ml.
(§2) Keratinocytes (NHEK) were seeded in 24-well plates and cultured for 24 hours in culture medium. The medium was then replaced by assay medium containing or not (control) the single osmolyte or the combination of osmolytes C1 or C2 and cells were pre-incubated for 24 hours.
For hyper-osmotic conditions, the medium was removed and replaced by assay medium containing NaCl at 150 mM and containing the single osmolyte or the combination of osmolytes (C1 or C2). The cells were then incubated for 48 hours. In parallel, a normo-osmotic control (no osmotic stress control) was performed.
(§3) At the end of incubation, culture medium was removed and the cells were rinsed with a PBS solution. The cells were then detached using trypsin treatment and transferred into tubes. After several washes in PBS/BSA 0.2%, the cells were labeled with a propidium iodide (PI) solution (staining of dead cells).
(§4) Cell populations were then analyzed for number (total number of event per well during a fixed time), size (FSC), granularity (SSC) and viability parameters (% PI-positive cells, equivalent to % dead cells) by flow cytometry using BD FACSVerse™ flow cytometer. • Acquisition 1 represents the number of events (=number of cells) passing one by one in front of the cytometer laser over a fixed time. It doesn't distinct dead or living cells at this step. By subtracting the number of events (in hyperosmotic or irradiated condition) from the total number of events in normoosmotic conditions, it is possible to calculate the number of cells that have been lysed due to the stress conditions. • Acquisition 2, represents, on a fixed number of events, 1) the detection of the light scattered when the cells are crossing the laser, FSC-A, from which can be calculated the cell size, 2) the detection of the cells stained by Propidium Iodide (dead cells) from which can be calculated the % of viable cells.

[2] = test system: Normal Human Epidermal Keratinocytes (NHEK); assay: Protection of keratinocytes under UV-irradiated conditions (UVB 250 mJ/cm2), flow cytometry
Description: as §1, §2
For UV-irradiated conditions, the medium was then removed and replaced by assay medium and the cells were irradiated with UVB at 250 mJ/cm2 (+UVA at 1.6 J/cm2). The lamp used was a SOL500 Sun simulator equipped with an H2 filter (Dr. Hole, AG). A non-irradiated control condition was performed in parallel. After irradiation, the medium was removed and replaced by assay medium containing or not (control) the single osmolyte or the combination of osmolytes (C1 or C2) and the cells were incubated for 48 hours.
as §3, §4

[3] = test system: Normal Human Epidermal Keratinocytes (NHEK); assay: Protection of keratinocytes under UV-irradiated and hyper-osmotic conditions, flow cytometry; details: NaCl 150 mM + UVB 250 mj/cm^2
Description: as §1, §2
For UV-irradiated and hyper-osmotic conditions, the medium was then removed and replaced by assay medium and the cells were irradiated with UVB at 250 mJ/cm2 (+UVA at 1.6 J/cm2). The lamp used was a SOL500 Sun simulator equipped with an H2 filter (Dr. Höle, AG). After irradiation, the medium was removed and replaced by assay medium containing NaCl at 150 mM (hyperosmotic conditions) and containing the single osmolyte or the combination of osmolytes (C1 or C2) and the cells were then incubated for 48 hours. In parallel, a non-irradiated and normo-osmotic control was performed.
as §3, §4

[4] = test system: Reconstructed Human Epidermis (RHE); assay: Caffein diffusion test on Reconstituted Human Epidermis (RHE); details: for caffein diffusion through RHE: systemic treatment
Description: By measuring the amount of […] […] The epidermis used was a Reconstructed Human Epidermis, called “RHE”, 0-day-old, batch no 01015-444, placed in culture conditions 37° C., 5% CO2. The assay medium was the Bioalternatives maintenance medium. RHE at Day 0 (when placed at the air/liquid interface) were placed in assay medium containing or not (control) the compounds, the combination or the reference (vitamin C at 200 μg/ml). This is referred to as a systemic application, to be differentiated from a topical application. RHE were then incubated for 7 days with treatment renewal at Day 3 and Day 5. All experimental conditions were performed in n=3. At the end of incubation (Day 7), radioactive […] ([^14[…] applied on the surface of each epidermis. The radioactivity contained in subnatants was measured by liquid scintillation after 30 minutes, 1, 2, 3, 4, 5, 6, 7 and 8 hours of incubation. The barrier function is calculated according to the below formula:

With O=C(O)[C@@H]1CCCN1 [L-Proline] the “% cell size difference compared to control hyperosmotic stress condition under 150 mM NaCl” value ([1]; 3 mg/ml total osmolytes) was “+4%”, the “% cell size difference compared to control hyperosmotic stress condition under 150 mM NaCl” value ([1]; 10 mg/ml total osmolytes) was “+13%” and the viability at 3000 µg/mL ([1]; Homo sapiens, NHEK, NaCl 150 mM 48 h, 3 mg/ml, read-out: Cell viability, % hyperosmotic control) was 143%. The “Lysed cells, % normo-osmotic control (% cell lysis)” value ([1]; NaCl 150 mM 48 h, 3 mg/ml) was 67.2%, the “Lysed cells: Mean number of event per well normo-osmotic control − Mean number of event per well hyperosmotic conditions” value ([1]; NaCl 150 mM 48 h, 3 mg/ml) was 73197 and the “Mean % viable cells = 100-% PI-positive cells = 100-% dead cells” value ([1]; NaCl 150 mM 48 h, 3 mg/ml) was 69.6%. The “Mean cell size FSC-A (au)” value ([1]; NaCl 150 mM 48 h, 3 mg/ml) was 68417 au, the “Total number of events per well, % hyperosmotic control” value ([1]; NaCl 150 mM 48 h, 3 mg/ml) was 130% and the “Total number of events per well, Mean (au)” value ([1]; NaCl 150 mM 48 h, 3 mg/ml) was 18676 au. For the same compound, the “Cell size, % hyperosmotic control” value ([1]; NaCl 150 mM 48 h, 10 mg/ml) was 113%, the “Lysed cells, % normo-osmotic control (% cell lysis)” value ([1]; NaCl 150 mM 48 h, 10 mg/ml) was 41.7% and 67.2% and the “Lysed cells: Mean number of event per well normo-osmotic control − Mean number of event per well hyperosmotic conditions” value ([1]; NaCl 150 mM 48 h, 10 mg/ml) was 56995. The “Mean cell size FSC-A (au)” value ([1]; NaCl 150 mM 48 h, 10 mg/ml) was 74581 au, the “Total number of events per well, % hyperosmotic control” value ([1]; NaCl 150 mM 48 h, 10 mg/ml) was 243% and the “Total number of events per well, Mean (au)” value ([1]; NaCl 150 mM 48 h, 10 mg/ml) was 34878 au. For the same compound, the viability at 3000 µg/mL ([2]; Homo sapiens, NHEK, light or radiation study, UVB 250 mj/cm^2, 3 mg/ml, read-out: Cell viability, % hyperosmotic control) was 103%, the “effect on cells submitted to UVB irradiation” value ([2]; UVB 250 mJ/cm^2 alone or in combination with hyperosmotic stress) was “no clear effect” and the “Cell size, % hyperosmotic control” value ([2]; UVB 250 mj/cm^2, 3 mg/ml) was 110%. The “Mean % viable cells = 100-% PI-positive cells = 100-% dead cells” value ([2]; UVB 250 mj/cm^2, 3 mg/ml) was 86.4%, the “Mean cell size FSC-A (au)” value ([2]; UVB 250 mj/cm^2, 3 mg/ml) was 100519 au and the “Cell size, % hyperosmotic control” value ([2]; UVB 250 mj/cm^2, 10 mg/ml) was 110%. For the same compound, the “Mean cell size FSC-A (au)” value ([2]; UVB 250 mj/cm^2, 10 mg/ml) was 101243 au, the “Cell size, % hyperosmotic control” value ([3]; 3 mg/ml) was 102% and the “Mean cell size FSC-A (au)” value ([3]; 3 mg/ml) was 69601 au. For the same compound, the “Cell size, % hyperosmotic control” value ([3]; 10 mg/ml) was 100%, the “Mean cell size FSC-A (au)” value ([3]; 10 mg/ml) was 68169 au and the “Barrier function % Control” value ([4]; 0.5 hrs, 3 mg/ml) was 96%. The “Mean [14C]-caffein (cpm)” value ([4]; 0.5 hrs, 3 mg/ml) was 20720 cpm, the “[14C]-caffein % Control” value ([4]; 0.5 hrs, 3 mg/ml) was 105% and the “Barrier function % Control” value ([4]; 0.5 hrs, 10 mg/ml) was 98%. For the same compound, the “Mean [14C]-caffein (cpm)” value ([4]; 0.5 hrs, 10 mg/ml) was 20193 cpm, the “[14C]-caffein % Control” value ([4]; 0.5 hrs, 10 mg/ml) was 103% and the “Barrier function % Control” value ([4]; 1 hrs, 3 mg/ml) was 97%. For the same compound, the “Mean [14C]-caffein (cpm)” value ([4]; 1 hrs, 3 mg/ml) was 47352 cpm, the “[14C]-caffein % Control” value ([4]; 1 hrs, 3 mg/ml) was 104% and the “Barrier function % Control” value ([4]; 1 hrs, 10 mg/ml) was 100%. For the same compound, the “Mean [14C]-caffein (cpm)” value ([4]; 1 hrs, 10 mg/ml) was 45495 cpm, the “[14C]-caffein % Control” value ([4]; 1 hrs, 10 mg/ml) was 100% and the “Barrier function % Control” value ([4]; 2 hrs, 3 mg/ml) was 94%. The “Mean [14C]-caffein (cpm)” value ([4]; 2 hrs, 3 mg/ml) was 106026 cpm, the “[14C]-caffein % Control” value ([4]; 2 hrs, 3 mg/ml) was 106% and the “Barrier function % Control” value ([4]; 2 hrs, 10 mg/ml) was 98%. The “Mean [14C]-caffein (cpm)” value ([4]; 2 hrs, 10 mg/ml) was 102027 cpm, the “[14C]-caffein % Control” value ([4]; 2 hrs, 10 mg/ml) was 102% and the “Barrier function % Control” value ([4]; 3 hrs, 3 mg/ml) was 93%. For the same compound, the “Mean [14C]-caffein (cpm)” value ([4]; 3 hrs, 3 mg/ml) was 147545 cpm, the “[14C]-caffein % Control” value ([4]; 3 hrs, 3 mg/ml) was 108% and the “Barrier function % Control” value ([4]; 3 hrs, 10 mg/ml) was 98%. The “Mean [14C]-caffein (cpm)” value ([4]; 3 hrs, 10 mg/ml) was 140203 cpm, the “[14C]-caffein % Control” value ([4]; 3 hrs, 10 mg/ml) was 102% and the “Barrier function % Control” value ([4]; 4 hrs, 3 mg/ml) was 93%. The “Mean [14C]-caffein (cpm)” value ([4]; 4 hrs, 3 mg/ml) was 169001 cpm, the “[14C]-caffein % Control” value ([4]; 4 hrs, 3 mg/ml) was 107% and the “Barrier function % Control” value ([4]; 4 hrs, 10 mg/ml) was 97%. For the same compound, the “Mean [14C]-caffein (cpm)” value ([4]; 4 hrs, 10 mg/ml) was 162571 cpm, the “[14C]-caffein % Control” value ([4]; 4 hrs, 10 mg/ml) was 103% and the “Barrier function % Control” value ([4]; 5 hrs, 3 mg/ml) was 93%. For the same compound, the “Mean [14C]-caffein (cpm)” value ([4]; 5 hrs, 3 mg/ml) was 184911 cpm, the “[14C]-caffein % Control” value ([4]; 5 hrs, 3 mg/ml) was 107% and the “Barrier function % Control” value ([4]; 5 hrs, 10 mg/ml) was 98%. For the same compound, the “Mean [14C]-caffein (cpm)” value ([4]; 5 hrs, 10 mg/ml) was 176461 cpm, the “[14C]-caffein % Control” value ([4]; 5 hrs, 10 mg/ml) was 102% and the “Barrier function % Control” value ([4]; 6 hrs, 3 mg/ml) was 94%. The “Mean [14C]-caffein (cpm)” value ([4]; 6 hrs, 3 mg/ml) was 190819 cpm, the “[14C]-caffein % Control” value ([4]; 6 hrs, 3 mg/ml) was 106% and the “Barrier function % Control” value ([4]; 6 hrs, 10 mg/ml) was 99%. For the same compound, the “Mean [14C]-caffein (cpm)” value ([4]; 6 hrs, 10 mg/ml) was 181674 cpm, the “[14C]-caffein % Control” value ([4]; 6 hrs, 10 mg/ml) was 101% and the “Barrier function % Control” value ([4]; 7 hrs, 3 mg/ml) was 94%. For the same compound, the “Mean [14C]-caffein (cpm)” value ([4]; 7 hrs, 3 mg/ml) was 199859 cpm, the “[14C]-caffein % Control” value ([4]; 7 hrs, 3 mg/ml) was 106% and the “Barrier function % Control” value ([4]; 7 hrs, 10 mg/ml) was 99%. The “Mean [14C]-caffein (cpm)” value ([4]; 7 hrs, 10 mg/ml) was 190843 cpm, the “[14C]-caffein % Control” value ([4]; 7 hrs, 10 mg/ml) was 101% and the “Barrier function % Control” value ([4]; 8 hrs, 3 mg/ml) was 100% and 99%. The “Barrier function (% L-Proline 3 mg/ml)” value ([4]; 8 hrs, 3 mg/ml) was 104%, the “Barrier function (% L-Proline 10 mg/ml)” value ([4]; 8 hrs, 3 mg/ml) was 100% and the “Mean [14C]-caffein (cpm)” value ([4]; 8 hrs, 3 mg/ml) was 193655 cpm and 194941 cpm. For the same compound, the “[14C]-caffein % Control” value ([4]; 8 hrs, 3 mg/ml) was 100% and 101%, the “Barrier function % Control” value ([4]; 8 hrs, 10 mg/ml) was 95% and the “Mean [14C]-caffein (cpm)” value ([4]; 8 hrs, 10 mg/ml) was 203011 cpm. The “[14C]-caffein % Control” value ([4]; 8 hrs, 10 mg/ml) was 105%, the “caffein diffusion through RHE” value ([4]; 3 mg/ml) was “did not decrease caffein diffusion” and the “caffein diffusion through RHE” value ([4]; 10 mg/ml) was “did not decrease caffein diffusion”.
